Our source for the IC50 values is US11236079B2, “Morpholine derivates as inhibitors of Vps34” (Neuropore Therapies, Inc., priority 2018, dated 2022).

Each structure is given as a SMILES string.

Test [1] deals with PI3Kα (Homo sapiens (Human), UniProt P42336). Description: PI3Kα inhibition, ATP to ADP conversion by ADP-Glo kinase activity assay. The test is classed as biochemical. To be noted: 25 μM PIP2:PS, 60 μM ATP, reaction time 30 minutes. How it is done:
Inhibition of PI3Kα—Quantification of ATP to ADP conversion as a measure of PI3Kα activity. Active PI3Kα (Life Technologies), in the presence or absence of PI3Kα inhibitor, was reacted with PIP2:PS (Life Technologies), a substrate specifically optimized for use with Class I PI3 kinases, and ultrapure ATP (Promega). The conversion of ATP to ADP by PI3Kα was measured as luminescence signal via Promega ADP-Glo kinase activity assay. Assay was validated using published PI3Kα inhibitors LY294002, PI-103, BYL719, and GDC0198 as well as a DMSO vehicle control.
Compounds were prepared at 100× final concentration using a 12-point, 1:3 serial-dilution in DMSO, with DMSO control as the 12th point. Compound was then diluted in HEPES buffer (25 mM HEPES pH 7.5, 1 mM EGTA, 0.3% CHAPS) prior to addition to PI3Kα. Active PI3Kα diluted to 0.24 ng/μL (1.1 nM) in (50 mM HEPES pH 7.5, 6 mM MgCl2, 1 mM EGTA, 200 mM NaCl, 0.03% CHAPS, 8 mM DTT) was incubated with compound for 0 hr and 3 hr prior to the start of the reaction. 25 μM PIP2:PS and 60 μM ATP were diluted from stock solution (25 mM HEPES pH 7.5, 1 mM EGTA, 0.3% CHAPS) and added to initiate the PI3Kα reaction. Reaction time was 30 minutes. ATP to ADP conversion was measured in Luminescence Counts on DTX880 Plate Reader (Beckman Coulter). The IC50 of the compounds were reported using the GraphPad Prism software. Analytical method was non-linear regression, 4-parameter curve fit with bottom fit to validated PI3Kα inhibitor reference controls and no top fit (floating top).

Test [2] deals with PI3KC3 (hVPS34) kinase (Homo sapiens (Human), UniProt Q8NEB9). Briefly: PI3KC3 (hVPS34) kinase assay, ADP-Glo luminescence detection. Format: biochemical. The following applies: PI:PS lipid substrate, 60 min at 30° C., read-out: VPS34 IC50. The method, then:
The PI3KC3 (hVPS34) kinase reactions utilize ATP and produce ADP as a byproduct. The ADP production is quantified by ADP-Glo luminescence detection. The PI3KC3 (hVPS34) kinase assay was performed by Reaction Biology Corp. (Malvern, Pa.).
This was a 3-step reaction: First, the kinase reaction with lipid substrate was carried out in the presence of ATP. The reaction was then quenched, and the remaining ATP depleted with ADP-Glo™ reagent. Finally, the ADP was converted to ATP, which is measured using a luciferase/luciferin reaction. The luminescence was converted into μM ADP production based on ADP standard curves. The nonlinear regression to obtain the standard curve and IC50 values were performed using Graphpad Prism software.
The substrate (Phosphatidylinositol (PI): Phosphatidylserine (PS)) was added to freshly prepared reaction buffer (40 mM Tris-HCl (pH7.5), 3 μM Orthovanadate, 20 mM MgCl2, 2 mM DTT, 0.05% CHAPS, 1% DMSO). The PI3KC3 (hVPS34) kinase was delivered into the substrate solution with gentle mixing. Compounds were delivered in 100% DMSO into the kinase reaction mixture by Acoustic technology (Echo550; nanoliter range). The reaction was incubated for 20 min at room temperature. ATP was delivered into the reaction mixture to initiate the reaction. After incubating the mixture for 60 min at 30° C., the reaction was quenched with ADP-Glo reagent (Promega ADP Glo Kinase Assay kit #V9102) and incubated for 40 min at room temperature. Detection mixture (Promega ADP Glo Kinase Assay kit #V9102) was added and the reaction was incubated for 30 minutes. Luminescence was measured.

Chain of PI3KC3 (hVPS34) kinase (Q8NEB9 whole entry): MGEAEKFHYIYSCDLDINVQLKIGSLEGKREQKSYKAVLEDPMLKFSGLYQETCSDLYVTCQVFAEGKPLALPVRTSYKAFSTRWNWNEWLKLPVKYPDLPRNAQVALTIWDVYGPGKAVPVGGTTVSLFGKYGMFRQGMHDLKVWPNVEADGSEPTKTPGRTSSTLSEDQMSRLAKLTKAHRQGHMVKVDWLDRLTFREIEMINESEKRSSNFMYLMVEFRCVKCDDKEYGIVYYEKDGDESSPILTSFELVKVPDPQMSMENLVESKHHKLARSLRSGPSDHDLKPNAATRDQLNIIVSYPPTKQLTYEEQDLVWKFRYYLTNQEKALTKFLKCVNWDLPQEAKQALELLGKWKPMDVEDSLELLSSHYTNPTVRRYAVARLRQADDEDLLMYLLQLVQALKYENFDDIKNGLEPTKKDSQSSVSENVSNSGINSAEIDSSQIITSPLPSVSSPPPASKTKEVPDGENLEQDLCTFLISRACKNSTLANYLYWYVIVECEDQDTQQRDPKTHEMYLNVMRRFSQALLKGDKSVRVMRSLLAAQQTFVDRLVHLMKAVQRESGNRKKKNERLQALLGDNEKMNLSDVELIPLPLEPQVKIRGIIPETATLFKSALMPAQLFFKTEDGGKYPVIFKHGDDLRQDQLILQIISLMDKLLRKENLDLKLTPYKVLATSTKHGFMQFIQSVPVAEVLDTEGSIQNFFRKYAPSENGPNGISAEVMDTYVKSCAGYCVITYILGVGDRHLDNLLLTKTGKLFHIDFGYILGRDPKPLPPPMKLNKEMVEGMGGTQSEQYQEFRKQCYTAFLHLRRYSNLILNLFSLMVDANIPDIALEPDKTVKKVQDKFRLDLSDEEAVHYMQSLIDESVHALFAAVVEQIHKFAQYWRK
Chain of PI3Kα (P42336 whole entry): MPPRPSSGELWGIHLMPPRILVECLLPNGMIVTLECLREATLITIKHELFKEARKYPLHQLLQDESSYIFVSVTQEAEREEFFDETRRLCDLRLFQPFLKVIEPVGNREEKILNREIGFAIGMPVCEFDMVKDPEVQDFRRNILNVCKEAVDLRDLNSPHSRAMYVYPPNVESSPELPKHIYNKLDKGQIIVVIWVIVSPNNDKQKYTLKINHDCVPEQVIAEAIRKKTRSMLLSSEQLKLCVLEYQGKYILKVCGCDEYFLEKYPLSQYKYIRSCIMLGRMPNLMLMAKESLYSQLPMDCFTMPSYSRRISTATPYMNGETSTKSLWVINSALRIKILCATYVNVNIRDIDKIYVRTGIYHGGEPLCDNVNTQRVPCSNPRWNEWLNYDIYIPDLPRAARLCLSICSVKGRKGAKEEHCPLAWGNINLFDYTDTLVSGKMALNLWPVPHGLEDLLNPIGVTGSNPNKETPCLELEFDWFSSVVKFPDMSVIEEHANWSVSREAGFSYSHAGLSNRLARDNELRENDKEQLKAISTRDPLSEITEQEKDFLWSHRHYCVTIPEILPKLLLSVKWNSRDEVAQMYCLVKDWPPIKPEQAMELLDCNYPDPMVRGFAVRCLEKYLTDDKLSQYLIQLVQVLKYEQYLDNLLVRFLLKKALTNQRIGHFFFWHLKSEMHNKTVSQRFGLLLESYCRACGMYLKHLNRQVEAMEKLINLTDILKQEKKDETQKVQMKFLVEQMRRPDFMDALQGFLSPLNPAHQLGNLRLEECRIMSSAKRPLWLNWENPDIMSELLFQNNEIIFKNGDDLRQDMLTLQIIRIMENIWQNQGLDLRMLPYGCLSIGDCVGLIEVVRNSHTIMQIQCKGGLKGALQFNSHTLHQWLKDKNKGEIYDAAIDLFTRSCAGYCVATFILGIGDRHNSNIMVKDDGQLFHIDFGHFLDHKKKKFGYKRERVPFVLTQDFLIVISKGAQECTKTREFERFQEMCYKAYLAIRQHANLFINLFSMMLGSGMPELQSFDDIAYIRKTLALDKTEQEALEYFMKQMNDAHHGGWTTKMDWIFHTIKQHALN
Chain of PI3Kα (P27986 whole entry partner): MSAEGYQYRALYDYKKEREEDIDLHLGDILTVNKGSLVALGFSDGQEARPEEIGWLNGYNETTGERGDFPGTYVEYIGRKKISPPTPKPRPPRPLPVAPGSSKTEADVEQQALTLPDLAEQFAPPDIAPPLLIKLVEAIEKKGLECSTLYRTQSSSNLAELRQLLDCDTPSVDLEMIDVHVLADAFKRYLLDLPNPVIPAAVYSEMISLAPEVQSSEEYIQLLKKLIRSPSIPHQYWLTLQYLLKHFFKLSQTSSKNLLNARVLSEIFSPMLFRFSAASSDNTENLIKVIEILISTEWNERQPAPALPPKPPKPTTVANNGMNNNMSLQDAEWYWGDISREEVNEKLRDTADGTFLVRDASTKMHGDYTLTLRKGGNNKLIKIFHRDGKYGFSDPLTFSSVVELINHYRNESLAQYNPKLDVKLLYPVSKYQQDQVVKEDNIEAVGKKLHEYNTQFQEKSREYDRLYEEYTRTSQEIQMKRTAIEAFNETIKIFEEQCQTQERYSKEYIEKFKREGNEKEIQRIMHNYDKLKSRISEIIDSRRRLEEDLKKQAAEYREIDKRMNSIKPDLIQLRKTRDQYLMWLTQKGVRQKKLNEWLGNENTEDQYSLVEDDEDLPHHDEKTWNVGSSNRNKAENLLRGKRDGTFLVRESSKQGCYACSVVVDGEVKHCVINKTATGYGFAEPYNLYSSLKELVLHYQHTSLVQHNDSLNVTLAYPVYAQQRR

For `Nc1nnc(-c2cc(N3CCOCC3)cc(S(=O)(=O)c3ccccc3)c2)s1` [Example 3, 5-(3-morpholino-5-(phenylsulfonyl)phenyl)-1,3,4-thiadiazol-2-amine], the values for the IC50 in test [1] and in test [2] were 2200 nM and 1600 nM, respectively.

For the compound `Nc1nc(C(F)(F)F)c(-c2cc(N3CCOCC3)cc(S(=O)(=O)[C@@H]3CCOC3)c2)s1` [Example 2, (R)-5-(3-morpholino-5-((tetrahydrofuran-3-yl)sulfonyl)phenyl)-4-(trifluoromethyl)thiazol-2-amine], the IC50 is 740 nM in test [1] and 2100 nM in test [2].

On to `Nc1ncc(-c2cc(Oc3ccccc3)cc(N3CCOCC3)n2)s1` [Example 8, 5-(6-morpholino-4-phenoxypyridin-2-yl)thiazol-2-amine], for which the IC50 in test [1] was found to be 3420 nM; in test [2], 150 nM.

For `Cc1nc(N)sc1-c1cc(S(=O)(=O)c2ccccc2)cc(N2CCOCC2)n1` [Example 7, 4-methyl-5-(6-morpholino-4-(phenylsulfonyl)pyridin-2-yl)thiazol-2-amine], the figures for the IC50 in test [1] and in test [2] were 2300 nM and 19 nM, respectively.

In the case of `Nc1nsc(-c2cc(N3CCOCC3)cc(S(=O)(=O)c3ccccc3)c2)n1` [Example 4, 5-(3-morpholino-5-(phenylsulfonyl)phenyl)-1,2,4-thiadiazol-3-amine], the half-maximal inhibitory concentration (IC50) in test [1] was determined as 11200 nM; in test [2], 2200 nM.

Turning to `Nc1ncc(-c2cc(N3CCOCC3)cc(S(=O)(=O)[C@@H]3CCOC3)c2)s1` [Example 1, (R)-5-(3-morpholino-5-((tetrahydrofuran-3-yl)sulfonyl)phenyl)thiazol-2-amine], the IC50 in test [1] turned out to be 750 nM; in test [2], 3800 nM.

For `Nc1nc(C(F)(F)F)c(-c2cc(S(=O)(=O)c3ccccc3)cc(N3CCOCC3)n2)s1` [Example 6, 5-(6-morpholino-4-(phenylsulfonyl)pyridin-2-yl)-4-(trifluoromethyl)thiazol-2-amine], the 50% inhibitory concentration (IC50) in test [1] was found to be 5240 nM; in test [2], 287 nM.

Regarding `Nc1ncc(-c2cc(S(=O)(=O)c3ccccc3)cc(N3CCOCC3)n2)s1` [Example 5, 5-(6-morpholino-4-(phenylsulfonyl)pyridin-2-yl)thiazol-2-amine], the IC50 was determined as 502 nM in test [1] and 81 nM in test [2].
